{"source": "patent US20250367215A1", "about": "“PHARMACEUTICAL COMBINATION COMPRISING A CHOLANE DERIVATIVE AND A STATIN OR URSODESOXYCHOLIC ACID” (BAR PHARMACEUTICALS SOCIETA' A RESPONSABILITA' LIMITATA, priority 2022, published 2025)", "tested_on": "C57BL6 mice", "experiment": "HFD-F diet-induced NASH mouse model, BAR502 and UDCA (Example 2)", "type": "in vivo", "conditions": "C57BL6 mice on HFD-F for 61 days; oral from day 6; UDCA 30 mg/kg alone or with BAR502 30 mg/kg", "excerpt": "The mouse model of Example 1 was used once again. Using this mouse model, the inventors therefore investigated the effectiveness of the association between BAR502 and UDCA in preventing the development of NASH.", "data": [{"compound": "C[C@H](CCC(=O)O)[C@H]1CC[C@H]2[C@@H]3[C@@H](O)C[C@@H]4C[C@H](O)CC[C@]4(C)[C@H]3CC[C@]12C", "note": "[UDCA, ursodesoxycholic acid]", "values": [{"measurement": "effect on insulin resistance, glucose load curve (OGTT) (FIG. 9)", "result": "beneficial effects on insulin resistance"}]}]}
